{"source": "paper PMC7782499", "about": "“Progerinin, an optimized progerin-lamin A binding inhibitor, ameliorates premature senescence phenotypes of Hutchinson-Gilford progeria syndrome” (Communications Biology, 2021)", "key": {"[1]": {"target": "hERG (human Ether-à-go-go-Related Gene) (Homo sapiens, UniProt Q12809)", "sequence (Q12809 whole entry)": "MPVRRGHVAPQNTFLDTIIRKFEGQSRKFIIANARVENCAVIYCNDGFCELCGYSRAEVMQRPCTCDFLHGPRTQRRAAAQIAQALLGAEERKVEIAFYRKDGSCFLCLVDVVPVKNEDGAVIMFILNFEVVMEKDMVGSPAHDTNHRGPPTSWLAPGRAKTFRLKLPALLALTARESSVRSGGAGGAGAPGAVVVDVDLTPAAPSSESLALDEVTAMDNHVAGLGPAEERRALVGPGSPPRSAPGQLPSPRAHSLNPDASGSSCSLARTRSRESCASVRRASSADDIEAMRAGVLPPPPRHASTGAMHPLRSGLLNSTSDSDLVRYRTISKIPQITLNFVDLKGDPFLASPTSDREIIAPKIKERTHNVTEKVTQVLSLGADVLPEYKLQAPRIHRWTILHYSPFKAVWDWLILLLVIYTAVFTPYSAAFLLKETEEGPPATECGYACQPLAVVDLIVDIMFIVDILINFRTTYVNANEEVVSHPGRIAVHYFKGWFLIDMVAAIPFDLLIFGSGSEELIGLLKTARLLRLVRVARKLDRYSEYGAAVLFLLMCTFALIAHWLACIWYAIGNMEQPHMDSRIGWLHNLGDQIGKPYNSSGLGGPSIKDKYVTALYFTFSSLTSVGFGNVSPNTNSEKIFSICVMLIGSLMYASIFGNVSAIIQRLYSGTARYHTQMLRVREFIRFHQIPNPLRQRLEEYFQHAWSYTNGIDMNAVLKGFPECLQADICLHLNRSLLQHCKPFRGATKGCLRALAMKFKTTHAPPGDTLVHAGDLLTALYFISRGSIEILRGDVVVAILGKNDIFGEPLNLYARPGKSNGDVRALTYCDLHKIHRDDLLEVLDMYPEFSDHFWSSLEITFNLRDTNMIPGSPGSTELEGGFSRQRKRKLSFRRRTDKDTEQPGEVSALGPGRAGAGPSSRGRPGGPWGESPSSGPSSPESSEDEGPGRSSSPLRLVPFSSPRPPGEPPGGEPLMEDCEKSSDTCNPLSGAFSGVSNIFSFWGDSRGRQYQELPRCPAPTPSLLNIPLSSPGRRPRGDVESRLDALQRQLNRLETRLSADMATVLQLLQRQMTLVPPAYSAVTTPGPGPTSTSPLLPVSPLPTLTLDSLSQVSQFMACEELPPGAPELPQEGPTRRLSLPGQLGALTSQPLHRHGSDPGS", "test": "hERG inhibition", "format": "in vitro ADME", "method": "(§1) At pre-set time-points, blood concentration of JH4 was determined by LC-MS/MS analysis[22],[23]. Other chemicals were also tested using similar protocol. In vitro ADME studies (plasma protein binding, CYP inhibition, microsomal stability, plasma stability, and hERG inhibition) were performed by New Drug Development Center (Daegu, Korea) using standard protocols[24],[25]."}, "Lmna G609G/+ mouse": {"system": "Lmna G609G/+ mouse", "test": "Histology analysis (Masson Trichrome, H&E)", "format": "in vivo", "conditions": "Lmna G609G/+ mice, oral 50 mg/kg daily, 8 weeks", "method": "Tissue specimens were fixed in 4% PFA and embedded in paraffin. Paraffin blocks were sectioned and transferred onto adhesive-coated slides. After deparaffinization and rehydration, tissue sections were stained with Masson Trichrome. Histology analysis was performed by BioLead Inc. (Seoul, Korea).\nFig. S11. Histological analysis of age- matched Lmna+/+ mice (left), untreated Lamn G609G/+ mice (middle) and progerinin- treated LmnaG609G/+ mice (right, Lmna +/+: n = 4; un tr e at e d Lmna G609G/+: n = 6; pr o ge r in -treated LmnaG609G/+: n=6). A -C. Masson Trichrome staining for fibrosis analysis was performed after 8-week treatment. A. Reduction of fibrosis in heart after administration of progeirnin in L mn a G609G transgenic mice.\nThe collagen-rich fibrotic area (blue) is widely distributed in untreated LmnaG609G/+ mi c e compared to Lmna+/+ and progerin- treated LmnaG609G/+ mi c e. B. Fibrosis in liver of Lmna G609G transgenic mice was reduced by progerinin. C. Unt r eat ed LmnaG609G/+ mi c e show a relatively loose connection between blood vessel walls and tissues in lungs. D -E. Hematoxylin and Eosin (H&E) staining was performed to compare skin and bones of Lmna +/+ and LmnaG609G mice. Conditions of foot pad skin (D), vertebra (E), and femur (F) of Lmna +/+ and progerin-treated LmnaG609G/+ mice were better than those of untreated Lmna G609G/+ mice. […]"}, "CYP3A4": {"target": "CYP3A4 (Homo sapiens, UniProt P08684)", "sequence (P08684 whole entry)": "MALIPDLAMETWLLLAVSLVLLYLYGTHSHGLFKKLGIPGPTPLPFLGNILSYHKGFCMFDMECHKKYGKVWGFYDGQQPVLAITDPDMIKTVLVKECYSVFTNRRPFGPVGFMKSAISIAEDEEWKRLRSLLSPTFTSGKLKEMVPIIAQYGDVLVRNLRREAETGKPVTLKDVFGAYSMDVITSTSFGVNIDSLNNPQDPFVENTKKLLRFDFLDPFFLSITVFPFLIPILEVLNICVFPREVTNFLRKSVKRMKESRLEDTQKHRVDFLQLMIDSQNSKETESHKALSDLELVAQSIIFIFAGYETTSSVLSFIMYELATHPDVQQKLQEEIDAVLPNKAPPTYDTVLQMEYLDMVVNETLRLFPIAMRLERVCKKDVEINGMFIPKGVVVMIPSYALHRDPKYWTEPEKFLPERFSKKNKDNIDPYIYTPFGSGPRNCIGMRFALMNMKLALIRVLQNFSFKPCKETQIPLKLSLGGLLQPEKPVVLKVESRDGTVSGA", "test": "CYP inhibition, CYP3A4", "format": "in vitro ADME", "method": "as §1"}, "HGPS cells": {"system": "HGPS cells", "test": "Ki67-positive cells in HGPS cells", "format": "cell-based, human", "conditions": "for Ki67 positive cells/total cells: AG03199; for Ki67 positive cells/total cells (ratio): AG11498, 3 days", "method": "A. In vivo pharmacokinetic (PK) analysis of JH010 (performed in rats). […] B Effect of SLC-D011 on human ERG (hERG). […] C In vivo pharmacokinetic analysis of SLD-D011. […] HEK293 cells transiently transfected with GFP-PG vectors were treated with SLC-D011 for 24 hr (n = 3 independent experiment; two-tailed Student’s t test). […] “Con” means dimethyl sulfoxide (DMSO)-treated control.\nCells were cultured on coverslips, washed with PBS, fixed with 4% paraformaldehyde (PFA) for 30 min at RT, and then permeabilized with 0.2% Triton X-100 at RT for 5 min. After treatment with blocking solution (anti-Human antibody diluted 1:400 in PBS) for 1 h, cells were incubated with anti-lamin A/C (1:400), anti-progerin (1:100), Ki67 (1:200), and anti-H3K9me3 (1:200) in blocking buffer overnight at 4 °C. Finally, cells were incubated with fluorescein isothiocyanate and rhodamine-conjugated secondary antibodies at 4 °C for 7 h. Nuclei were stained with DAPI (4, 6-diamidino-2-phenylindole) at RT for 10 min. After cells were washed three times with PBS, coverslips were mounted with mounting solution (H-5501; Vector Laboratories, Burlingame, CA, USA). Immunofluorescence signal was detected with a fluorescence microscopy (Zeiss and Logos).\nHGPS cells were treated with SLC-D011 at a low concentration ( from 10\nnM to 5μM) for 3 days. C. […]\n[…] DAPI indicated DNA."}, "CYP2D6": {"target": "CYP2D6 (Homo sapiens, UniProt P10635)", "sequence (P10635 whole entry)": "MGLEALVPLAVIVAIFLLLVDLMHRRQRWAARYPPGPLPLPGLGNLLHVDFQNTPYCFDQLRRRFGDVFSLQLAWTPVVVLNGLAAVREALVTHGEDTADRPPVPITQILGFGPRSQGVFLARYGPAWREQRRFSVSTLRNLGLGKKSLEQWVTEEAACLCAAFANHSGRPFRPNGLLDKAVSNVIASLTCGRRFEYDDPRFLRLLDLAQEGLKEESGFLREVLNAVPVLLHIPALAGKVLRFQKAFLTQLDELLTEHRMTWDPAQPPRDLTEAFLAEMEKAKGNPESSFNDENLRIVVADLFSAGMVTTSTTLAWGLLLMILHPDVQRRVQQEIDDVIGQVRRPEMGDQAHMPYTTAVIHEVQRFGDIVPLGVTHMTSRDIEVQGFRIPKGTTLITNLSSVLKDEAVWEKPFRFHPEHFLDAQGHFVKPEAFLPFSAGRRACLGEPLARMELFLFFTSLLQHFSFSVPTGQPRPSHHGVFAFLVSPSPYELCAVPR", "test": "CYP inhibition, CYP2D6", "format": "in vitro ADME", "method": "as §1"}, "[2]": {"test": "Plasma protein binding, human", "format": "in vitro ADME", "conditions": "human, plasma", "method": "as §1"}, "Lmna G609G/G609G mouse": {"system": "Lmna G609G/G609G mouse", "set-up": "method as in PMID 27617860", "conditions": "intraperitoneal injection; cited from earlier work"}}, "note": "Values joined by “and” are separate entries in the source; they are usually repeats but may differ in a detail not shown here. Identical values can stand only once."}
{"smiles": "CC1(C)Oc2cc3oc(=O)ccc3cc2C[C@@H]1OC/C=C/c1ccccc1", "note": "[SLC-D011]", "values": [{"measurement": "hERG inhibition (in words)", "setting": "[1]", "value": "without severe hERG inhibition"}, {"measurement": "hERG inhibition: % Inhibition", "setting": "[1]; Conc: 1uM", "value": "14.673±4.74", "unit": "%"}, {"measurement": "hERG inhibition: % Inhibition", "setting": "[1]; Conc: 10uM", "value": "66.31±16.77", "unit": "%"}, {"measurement": "Fibrosis in heart and liver (Masson Trichrome)", "setting": "Lmna G609G/+ mouse", "value": "reduced"}, {"measurement": "CYP inhibition", "setting": "CYP3A4", "value": 92.5}, {"measurement": "Ki67 positive cells/total cells", "setting": "HGPS cells; 10nM, Ave", "value": 0.1497, "unit": "ratio"}, {"measurement": "Ki67 positive cells/total cells", "setting": "HGPS cells; 10nM, individual replicate", "value": "0.0625 ratio and 0.2083 ratio and 0.1538 ratio and 0.1646 ratio and 0.1594 ratio"}, {"measurement": "Ki67 positive cells/total cells", "setting": "HGPS cells; 50nM, Ave", "value": 0.369, "unit": "ratio"}, {"measurement": "Ki67 positive cells/total cells", "setting": "HGPS cells; 50nM, individual replicate", "value": "0.2857 ratio and 0.375 ratio and 0.4444 ratio and 0.5 ratio and 0.24 ratio"}, {"measurement": "Ki67 positive cells/total cells", "setting": "HGPS cells; 100nM, Ave", "value": 0.418, "unit": "ratio"}, {"measurement": "Ki67 positive cells/total cells", "setting": "HGPS cells; 100nM, individual replicate", "value": "0.275 ratio and 0.3214 ratio and 0.4286 ratio and 0.44 ratio and 0.625 ratio"}, {"measurement": "Ki67 positive cells/total cells", "setting": "HGPS cells; 500nM, Ave", "value": 0.45, "unit": "ratio"}, {"measurement": "Ki67 positive cells/total cells", "setting": "HGPS cells; 500nM, individual replicate", "value": "0.3889 ratio and 0.5 ratio and 0.5714 ratio and 0.3684 ratio and 0.4211 ratio"}, {"measurement": "Ki67 positive cells/total cells", "setting": "HGPS cells; 1μM, Ave", "value": 0.4556, "unit": "ratio"}, {"measurement": "Ki67 positive cells/total cells", "setting": "HGPS cells; 1μM, individual replicate", "value": "0.4146 ratio and 0.4286 ratio and 0.5 ratio and 0.4792 ratio"}, {"measurement": "Ki67 positive cells/total cells", "setting": "HGPS cells; 2μM, Ave", "value": 0.479, "unit": "ratio"}, {"measurement": "Ki67 positive cells/total cells", "setting": "HGPS cells; 2μM, individual replicate", "value": "0.5 ratio (2×) and 0.44 ratio and 0.4762 ratio"}, {"measurement": "Ki67 positive cells/total cells", "setting": "HGPS cells; 5μM, Ave", "value": 0.4663, "unit": "ratio"}, {"measurement": "Ki67 positive cells/total cells", "setting": "HGPS cells; 5μM, individual replicate", "value": "0.3571 ratio and 0.2857 ratio and 0.75 ratio and 0.5909 ratio and 0.3478 ratio"}, {"measurement": "Ki67 positive cells/total cells (ratio)", "setting": "HGPS cells; 10nM", "value": "0.25 and 0.2222 and 0.2143 and 0.3"}, {"measurement": "Ki67 positive cells/total cells (ratio)", "setting": "HGPS cells; 10nM, mean", "value": 0.2466}, {"measurement": "Ki67 positive cells/total cells (ratio)", "setting": "HGPS cells; 50nM", "value": "0.2857 and 0.3333 and 0.375 and 0.2"}, {"measurement": "Ki67 positive cells/total cells (ratio)", "setting": "HGPS cells; 50nM, mean", "value": 0.2985}, {"measurement": "Ki67 positive cells/total cells (ratio)", "setting": "HGPS cells; 100nM", "value": "0.3333 and 0.3125 and 0.4 and 0.375"}, {"measurement": "Ki67 positive cells/total cells (ratio)", "setting": "HGPS cells; 100nM, mean", "value": 0.3552}, {"measurement": "Ki67 positive cells/total cells (ratio)", "setting": "HGPS cells; 500nM", "value": "0.375 and 0.4444 and 0.4286"}, {"measurement": "Ki67 positive cells/total cells (ratio)", "setting": "HGPS cells; 500nM, mean", "value": 0.4058}, {"measurement": "Ki67 positive cells/total cells (ratio)", "setting": "HGPS cells; 1μM", "value": "0.3333 and 0.4 and 0.6 and 0.375"}, {"measurement": "Ki67 positive cells/total cells (ratio)", "setting": "HGPS cells; 1μM, mean", "value": 0.4271}, {"measurement": "Ki67 positive cells/total cells (ratio)", "setting": "HGPS cells; 2μM", "value": "0.4 and 0.375 and 0.4167"}, {"measurement": "Ki67 positive cells/total cells (ratio)", "setting": "HGPS cells; 2μM, mean", "value": 0.3979}, {"measurement": "Concentration enough for inducing Ki67 expression", "setting": "HGPS cells; HGPS cells", "value": 100, "unit": "nM"}, {"measurement": "CYP inhibition", "setting": "CYP2D6", "value": 91.7}, {"measurement": "fraction unbound", "setting": "[2]", "value": 0.001}]}
{"smiles": "CC1(C)Oc2cc3oc(=O)ccc3cc2CC1OC(=O)C=Cc1cccnc1", "note": "(stereo not drawn) [JH4]", "values": [{"measurement": "Extension of life span", "setting": "Lmna G609G/G609G mouse", "value": "~ 4 weeks"}, {"measurement": "Increase of life span", "setting": "Lmna G609G/G609G mouse", "value": "~ 25%"}]}
